According to patent US20130108688A1, “Delivery of H2 Antagonists” (Trustees of Boston University, priority 2004, published 2013):
Read-outs that look alike come from different tables or passages of the source.

Assays:
[1] = AIDS patients; cited from earlier work
[2] = system: neutrophils; settings: cited from earlier work
[3] = system: immunized normal cells; settings: in vitro; optimum enhancement at lower dosage (10 μg) on first day; cited from earlier work
[4] = system: lymphocyte; settings: cited from earlier work
[5] = system: P. gingivalis-induced periodontitis; settings: for overall effect on tissue destruction and inflammatory cell infiltrate: local administration, three dosages; for linear distance from the epithelium to the alveolar crest border, ratio ligated/non-ligated sites (FIG. 6A): tip, middle and base of the crest
Experimental: In total, 21 New Zealand White rabbits (male, 3.5-4.0 kg each) were used in the experiments presented herein. Three different doses of Cimetidine (0.1, 1.0 and 10 μg/mL) have been prepared in paucilamellar liposomes (NOVASOME®). The animals were distributed as follows: Group A: Ligature alone (2 rabbits); Group B: Ligature+P. gingivalis (4 rabbits); Group C: Ligature+P. gingivalis+liposome (NOVASOME®) alone; Group D: Ligature+P. gingivalis+NOVASOME® preparation comprising 0.1 μg/mL of Cimetidine (4 rabbits); Group E: Ligature+P. gingivalis+NOVASOME® preparation comprising 1.0 μg/mL of Cimetidine (4 rabbits); and Group F: Ligature+P. gingivalis+NOVASOME® preparation comprising 10 μg/mL of Cimetidine (4 rabbits). All animals were purchased from Pine Acre Farms (Berthoud, Co.). The weight of the animals was strictly controlled and all animals weighed between 3.5-4.0 kg at the time of the initial experimentation. The animals were kept in individual cages, received water ad libitum, and were fed with specialized food (chow) for at least 5 days for acclimatization by experienced and licensed laboratory technicians at the Laboratory Animal Science Center at BUMC (BUMC LASC).
Ligature placement was performed under general anesthesia using ketamine (40 mg/kg) and xylazine (5 mg/kg) injections. […] Animals in group A received ligature only while animals in groups B, C, D, E, and F received P. gingivalis in addition to ligature placement.
P. gingivalis (strain A74376) was grown as previously described. Briefly, bacteria were cultured on agar plates containing trypticase soy agar supplemented with 0.5% (w/v) yeast extract, 5% defibrinated sheep red blood cells, […], and 1 μg/mL vitamin K. Plates were incubated for 3 days at 37° C. in jars anaerobically maintained through palladium catalyzed hydrogen/carbon dioxide envelopes (GasPak Plus, BD Microbiology Systems, Sparks, Md.). Colonies were randomly selected and anaerobically cultured overnight at 37° C. in Schaedler's broth supplemented with vitamin K and hemin. Bacteria numbers were spectrophotometrically determined at 600 nm and 10^9 CFU (0.8 OD) were mixed with carboxymethylcellulose to form a thick slurry, which was applied topically to the ligated teeth. The sutures were checked at every appointment, and lost or loose sutures were replaced.
Topical application was performed in animals of Groups D, E, and F every other day for 6 weeks under inhalation anesthesia using isoflurane (4.0 MAC/2.0 MAC). In these groups, Cimetidine was applied at three different doses. Cimetidine preparations were delivered in liposomes (NOVASOME®) that served as a vehicle for the H2 receptor antagonist. In order to see if liposome application alone would have any effect on the outcome, animals in Group C received liposomes without Cimetidine (i.e., NOVASOME® alone) in addition to ligature placement and P. gingivalis.
For histological analysis, the other half of the mandible was immersed in a volume of immunocal (Decal Corporation, Tallman, N.Y.) equal to at least 10 times the size of the section; the solution was replaced every 24 hours for 72 hours. Decalcification was assessed and confirmed by serial radiographs, which were taken every other day during two weeks.
The tissue was kept in this solution for 2-3 minutes, rinsed again in flowing deionized water for at least 3 minutes and kept in formalin for at least 24 hours before embedding in paraffin. Thin sections (5 μm) were cut and sections were conventionally stained with hematoxylin and eosin (H&E) to identify the cellular composition of the inflammatory infiltrates, and one hundred seventy (170) 5 μm-sections were stained with tartrate-resistant acid phosphatase (TRAP) to detect osteoclastic activity.
The data obtained by direct measurements during morphologic assessment and by histomorphometric measurements was used in multiple statistical analyses.

[6] = topical application to the oral cavity; cited from earlier work
[7] = system: H2 receptor; settings: via H2 receptor; cited from earlier work
[8] = system: CD8 (cytotoxic/suppressor) and CD4 (helper/inducer) lymphocytes; settings: 800 mg daily for 7 days; cited from earlier work
[9] = system: P. gingivalis and ligature-induced experimental periodontitis
[10] = system: P. gingivalis-induced periodontitis; settings: three doses; p<0.05

Row | Compound | clinical symptoms of disease [1] | superoxide (O2·-) and hydrogen peroxide (H2O2) production of neutrophils [2] | primary humoral antibody response [3] | immunomodulating effect among H2 receptor antagonists (cimetidine, ranitidine, famotidine) [4] | overall effect on tissue destruction and inflammatory cell infiltrate [5] | overall effect on tissue destruction and inflammatory cell infiltrate ([5]; listed as cimetidine) | total, ligatured and ratio of ligatured/non-ligatured areas of the alveolar crest (FIG. 6B) ([5]; three doses) | linear distance from the epithelium to the alveolar crest border, ratio ligated/non-ligated sites (FIG. 6A) ([5]; three doses) | linear distance from the epithelium to the alveolar crest border, ratio ligated/non-ligated sites (FIG. 6A) ([5]; three doses, listed as cimetidine) | bone loss and inflammatory changes, H&E stained sections (FIG. 4) ([5]; topical 0.1, 1.0 and 10 μg/mL, Groups D, E, F) | resolution of intra- and peri-oral warts [6] | histamine-mediated increase in IL-α induced IL-6 synthesis [7] | CD4 (helper/inducer) lymphocytes [8] | CD8 (cytotoxic/suppressor) lymphocytes [8] | preventive effect on bone loss, quantitative analysis of defleshed bone specimens (FIG. 2) ([9]; all three doses vs liposome (NOVASOME) placebo, p<0.05, ANOVA) | gingival inflammation and bone destruction (macroscopic, FIG. 1) ([9]; topical, in NOVASOME liposomes, 0.1, 1.0 and 10 μg/mL, every other day for 6 weeks, Groups D, E, F) | percentage of bone loss as calculated by Bjorn technique (FIG. 3 lower panel) [10]
1 | CN/C(=N/CCSCc1nc[nH]c1C)NC#N [Cimetidine] | significant improvement effect | reduces | markedly influence | strongest immunomodulating effect | prevent bone loss, inflammatory cell infiltration, and connective tissue destruction | inhibits P. gingivalis-elicited leukocyte migration toward the site of infection | no significant differences between the cimetidine groups | significantly increased (p<0.05) distances compared to the Cimetidine-treated groups | almost similar, insignificant (p>0.05) mean ratio values | prevent both bone loss and inflammatory changes | complete resolution | completely reverse | corresponding increase | decrease | statistically significant | prevented the gingival inflammation and bone destruction in a significant and comparable way with no apparent dose-dependent effect | prevents the destructive effects of P. gingivalis-induced periodontitis
2 | C/N=C(\S)NCCSCc1[nH]cnc1C [metiamide] | – | – | markedly influence | – | – | – | – | – | – | – | – | – | – | – | – | – | –
